# Where two headings read alike, the source gives them in different places.
# Experiments:
# [1] = test system: Human AXIN2; test: qPCR of AXIN2 expression in HCT116 cells; format: cell-based; conditions: HCT-116, Table 2, HCT116 cells, AXIN2 vs β-actin, 24 hours
# Method: Cells were digesting, counting, and plating cells in 24-well plates (flat bottom, clear), with 3×10^5 cells/500 ul DMEM (10% FBS) per well. • 2. Observing the state of cells on the next day, and start dosing after cell attachment is intact
# Diluting 514 with DMEM (2% FBS) by gradient dilution with concentrations of 20 μM, 10 μM, 5 μM, 2.5 μM, 1.25 μM, 0.625 μM, 0.3125 μM, 0.15625 μM, 0 μM (equal volume DMSO)
# Adding 500 μl of the above different concentrations of 514 to each well, and setting a single well for each concentration gradient except three repeat wells for the 0 μM concentration (double wells for qPCR). • 3. Incubating at 37° C. for 24 hours • 4. Discarding the supernatant, washing once with PBS, and adding trizol at 500/well • 5. RNA extraction (step omitted) • 6. Reverse transcription (step omitted, according to the kit) • 7. qPCR (step omitted, following the kit steps)
# • 8. calculation of inhibition rate
# [2] = test system: Human COL1 (collagen type I); test: Transformation of fibroblasts into myofibroblasts (anti-fibrosis test), collagen type I; format: cell-based; conditions: HFL1 cells, 20 ng/ml TGF-β1, 48 hours, supernatant
# Method: (§1) (4) Transformation of Fibroblasts into Myofibroblasts (Anti-Fibrosis Test) • I. Main materials
# (§2) HFL1 medium: F12K+10% FBS, adherent growth • II. Experimental Setup • 1. Normal group (medium only), model group (induced by 20 ng/ml TGF-β1), test sample group (20 ng/ml TGF-β1+ compound with different final concentration) • 2. 5 compounds, 3 concentration gradients, each gradient 2 repeat wells. • II. Experimental steps • 1. Digesting and counting, 5e^5 cells/well/2 ml, and seeded in 6-well plates. • 2. After adherent, adding TGF-β1 at a final concentration of 20 ng/ml and stimulating for 48 hours. Adding compounds with different final concentrations (0, 5 uM, 20 uM). • 3. Collecting the supernatant, and detecting the amount of col1 and col3 in the supernatant by kit. Lysing the cells with lysate solution, centrifuging, and collecting the supernatant. • 4. Detection of a-SMA and other genes by qPCR ii. Test Results • (1) BCL-9 affinity results are shown in Tables 1.1, 1.2, and 1.3, and the test methods were as described above.
# [3] = test system: Human a-SMA; test: Transformation of fibroblasts into myofibroblasts (anti-fibrosis test), a-SMA; format: cell-based; conditions: HFL1 cells, 20 ng/ml TGF-β1, 48 hours, qPCR
# Method: as §1, §2
# [4] = test system: collagen type III; test: Transformation of fibroblasts into myofibroblasts (anti-fibrosis test), collagen type III; format: cell-based; conditions: Homo sapiens, Fibroblast; HFL1 cells, 20 ng/ml TGF-β1, 48 hours, supernatant; read-out: IC50 Human COL1 (collagen type III)
# Method: as §1, §2
# [5] = test system: HCT116 cells; test: CCK8 cell viability assay in HCT116 cells; format: cell-based; conditions: Homo sapiens, HCT-116; Table 2, HCT116 cells, 24 hours
# Method: • 1. HCT116 cell plating
# Digesting, counting, and plating the cells in 96-well plates (flat bottom, transparent) with 10,000 cells/100 ul DMEM (10% FBS) per well; • 2. Observing the state of cells on the next day, and start dosing after cell attachment is intact; • 3. diluting 514 with DMEM (2% FBS) by gradient dilution with concentrations of 20 μM, 10 μM, 5 μM, 2.5 μM, 1.25 μM, 0.625 μM, 0.3125 μM, 0.15625 μM, 0 μM (equal volume of DMSO); • 4. Adding 100 μl of the above different concentrations of 514 to each well, and making two repeat wells for each concentration gradient; leaving three blank wells (only adding DMEM 2% FBS culture medium without cells). • 5. Culturing at 37° C. for 24 hours; • 6. Adding 10 μl CCK-8 enhanced solution to each well: due to the small amount added of CCK-8 in each well, it may cause errors resulting from the reagent staining on the wall of the well. It is recommended to gently tap the culture plate after adding the reagent to help mixing; • 7. Incubating in the incubator for 0.5-4 hours: the amount of Formazan formed is not the same for different cell types, in most cases, incubation for 1 hour is enough. If the color development is not enough, incubation can be continued to determine optimal conditions. • 8. Measuring the absorbance at 450 nm and 600 nm (excluding the interference of the background color of the reagent and the absorbance value of the well plate itself); • 9. Using OD450 nm-OD600 nm for the final absorbance, and calculating the inhibition rate:
# [formula] • As: absorbance of experimental wells (medium containing cells, CCK-8, drug to be tested); • Ac: absorbance of control wells (medium containing cells, CCK-8, and no drug to be tested); • Ab: absorbance of blank wells (medium without cells and drug to be tested, CCK-8). (3) qPCR • 1. HCT116 cell plating
# [6] = target: T1, BCL9/β-catenin (Homo sapiens, UniProt P35222); test: FP (BCL-9 avidity) fluorescence polarization competition assay with beta-catenin and FAP-Bcl9 tracer; format: binding
# T1 sequence (P35222 1-781): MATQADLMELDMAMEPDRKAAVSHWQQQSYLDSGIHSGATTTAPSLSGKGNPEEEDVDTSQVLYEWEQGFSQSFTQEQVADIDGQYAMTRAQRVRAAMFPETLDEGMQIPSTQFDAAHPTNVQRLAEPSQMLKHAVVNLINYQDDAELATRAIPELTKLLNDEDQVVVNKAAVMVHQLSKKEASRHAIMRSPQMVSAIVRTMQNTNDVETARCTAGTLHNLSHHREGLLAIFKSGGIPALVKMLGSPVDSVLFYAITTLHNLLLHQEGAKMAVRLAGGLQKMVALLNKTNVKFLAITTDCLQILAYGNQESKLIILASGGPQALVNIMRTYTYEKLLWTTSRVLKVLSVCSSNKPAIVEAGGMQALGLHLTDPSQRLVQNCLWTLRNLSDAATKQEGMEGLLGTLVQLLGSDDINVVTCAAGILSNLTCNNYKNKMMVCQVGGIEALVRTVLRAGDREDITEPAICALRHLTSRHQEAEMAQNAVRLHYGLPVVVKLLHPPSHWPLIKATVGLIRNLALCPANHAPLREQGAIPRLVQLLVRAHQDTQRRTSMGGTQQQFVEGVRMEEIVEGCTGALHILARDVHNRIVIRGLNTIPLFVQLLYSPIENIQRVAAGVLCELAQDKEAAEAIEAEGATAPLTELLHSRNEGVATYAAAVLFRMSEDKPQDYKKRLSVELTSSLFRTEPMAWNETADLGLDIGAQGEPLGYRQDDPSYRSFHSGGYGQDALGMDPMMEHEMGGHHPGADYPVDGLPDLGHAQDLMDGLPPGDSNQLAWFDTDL
# Method: Incubating for 2 hours on a horizontal shaker. Then adding 2 nM FAP-Bcl9 tracer to each well, and after incubation for 2H on a horizontal shaker, measuring the […].
# [7] = Table 1.2, compounds 7-16, read-out: BCL-9 avidity FP IC50
# [8] = Table 2, FP (BCL-9 affinity), read-out: FP
IC50 [1] [µM],IC50 [5] [µM],"IC50 [6, 7] [µM]","IC50 [6, 8] [µM]","IC50 ([6]; Table 1.1, compounds 1-6, read-out: BCL-9 avidity FP IC50) [µM]",Structure (SMILES),IC50 [2] [µM],IC50 [3] [µM],IC50 [4] [µM]
1.46,1.05,3.15,3.15,–,"CC(C)(Oc1cccc(N2CCC[C@@H](C(=O)N(Cc3ccc(-c4cn[nH]c4)cc3)C3CC3)C2)c1Cl)C(=O)N1CCNCC1 [Compound 7, (3R)-1-(2-chloro-3-{[2-methyl-1-oxo-1-(piperazin-1-yl)propan-2-yl]oxy}phenyl)-N-cyclopropyl-N-{[4-(1H-pyrazol-4-yl)phenyl]methyl}piperidine-3-carboxamide]",10 to 20,20 to 30,10 to 20
10 to 50,10 to 50,–,10 to 50,> 10,"CC(C)(Oc1cccc(N2CC(C(=O)N(Cc3ccc(-c4cn[nH]c4)cc3)C3CC3)CC(C3CCCCC3)C2)c1)C(=O)N1CCNCC1 (stereo not shown) [Compound 1, 5-cyclohexyl-N-cyclopropyl-1-(3-{[2-methyl-1-oxo-1-(piperazin-1-yl)propan-2-yl]oxy}phenyl)-N-{[4-(1H-pyrazol-4-yl)phenyl]methyl}piperidine-3-carboxamide]",–,–,–
10 to 50,10 to 20,> 10,10 to 50,–,"CC(C)(Oc1cccc(N2CCC[C@@H](C(=O)N(Cc3ccc(-c4c[nH]c5ncccc45)cc3)C3CC3)C2)c1Cl)C(=O)N1CCNCC1 [Compound 8, (3R)-1-(2-chloro-3-{[2-methyl-1-oxo-1-(piperazin-1-yl)propan-2-yl]oxy}phenyl)-N-cyclopropyl-N-[(4-{1H-pyrrolo[2,3-b]pyridin-3-yl}phenyl)methyl]piperidine-3-carboxamide]",–,–,–

Structure (SMILES),IC50 [1] [µM],IC50 [5] [µM],"IC50 [6, 7] [µM]","IC50 [6, 8] [µM]","IC50 ([6]; Table 1.1, compounds 1-6, read-out: BCL-9 avidity FP IC50) [µM]",IC50 [2] [µM],IC50 [3] [µM],IC50 [4] [µM]
"CC(C)(Oc1cccc(N2CCC[C@@H](NC(=O)N(Cc3ccc(-c4cn[nH]c4)cc3)C3CC3)C2)c1)C(=O)NCCCN [Compound 19, N-(3-aminopropyl)-2-{3-[(3R)-3-{[cyclopropyl({[4-(1H-pyrazol-4-yl)phenyl]methyl})carbamoyl]amino}piperidin-1-yl]phenoxy}-2-methylpropanamide]",6.11,3.26,–,–,–,5.9,5 to 20,5 to 20
"CC(C)(Oc1cccc(N2CCC[C@@H](NC(=O)N(Cc3ccc(-c4cn[nH]c4)cc3)C3CC3)C2)c1)C(=O)N1CCNCC1 [Compound 17, 1-cyclopropyl-3-[(3R)-1-(3-{[2-methyl-1-oxo-1-(piperazin-1-yl)propan-2-yl]oxy}phenyl)piperidin-3-yl]-1-{[4-(1H-pyrazol-4-yl)phenyl]methyl}urea]",4.67,1.84,–,–,–,10 to 20,5 to 10,20 to 30

# — US20240391896A1 (Nantong Jutai Biotech Co., Ltd., priority 2021, published 2024)
